According to US11040963B2 (priority 2017, dated 2021):

What was measured:
[1] = target: HA H1 A/California/07/09 (Influenza A virus (A/California/07/2009(H1N1)), UniProt C3W5X2); assay: biochemical; conditions: Competition binding (AlphaLISA), pIC50 H1 A/California/07/09
[2] = target: HA H1 A/New Caledonia/20/99 (Influenza A virus (A/New Caledonia/20/1999(H1N1)), UniProt Q6WG00); assay: biochemical; conditions: Competition binding (AlphaLISA), pIC50 H1 A/New Caledonia/20/99
[3] = target: HA H5 A/Vietnam/1203/04 (Influenza A virus (A/Vietnam/1203/2004(H5N1)), UniProt Q5EP31); assay: biochemical; conditions: Competition binding (AlphaLISA), pIC50 H5 A/Vietnam/1203/04
H1N1 A/California/07/09 = assay: microbe, parasite or virus in culture; type: cell-based, influenza A virus; conditions: for EC50: Influenza A virus, H1N1, MDCK, 96 h, read-out: Virus neutralization assay (VNA), pEC50 H1N1 A/California/07/09 (converted)
[4] = system: H1N1 A/New Caledonia/20/99; assay: microbe, parasite or virus in culture; type: cell-based, influenza A virus; conditions: for EC50: Influenza A virus, H1N1, MDCK, 96 h, read-out: Virus neutralization assay (VNA), pEC50 H1N1 A/New Caledonia/20/99 (converted)
H5N1 A/Vietnam/1203/04 = assay: microbe, parasite or virus in culture; type: cell-based, influenza A virus; conditions: 96 h, average of repeats; for EC50: Influenza A virus, H5N1, MDCK, read-out: Virus neutralization assay (VNA), pEC50 H5N1 A/Vietnam/1203/04, MDCK cells, 96 h, CPE by ATPlite (converted)
in vitro = conditions: dog, Cytotoxicity (pCC50) MDCK

Compound | IC50 [1] | IC50 [2] | IC50 [3] | EC50 (H1N1 A/California/07/09) | EC50 [4] | EC50 (H5N1 A/Vietnam/1203/04) | CC50 (in vitro) | Virus neutralization assay (VNA), pEC50 H1N1 A/California/07/09 (H1N1 A/California/07/09) | Virus neutralization assay (VNA), pEC50 H1N1 A/New Caledonia/20/99 [4] | Virus neutralization assay (VNA), pEC50 H5N1 A/Vietnam/1203/04 (H5N1 A/Vietnam/1203/04; MDCK cells, CPE by ATPlite)
COc1ccc2nc(-c3cccc(C(=O)N4CCN(C(c5ccccc5)c5ncco5)CC4)c3)sc2c1 (stereo not drawn) [Example 74] | 200 nM | 79.4 nM | 2000 nM | 1000 nM | 631 nM | 6310 nM | > 50100 nM | – | – | –
NCc1nnc(C(c2ccccc2)N2CCN(C(=O)c3cccc(-c4nc5cc(C(F)(F)F)ccc5o4)c3)CC2)o1 (stereo not drawn) [Example 75] | 200 nM | 158 nM | 3980 nM | 1000 nM | 631 nM | 7940 nM | 10000 nM | – | – | –
Cc1nnc([C@@H](c2ccccc2)N2CCN(C(=O)c3cccc(-c4cnc5ccccc5c4)c3)CC2)o1 [Example 76] | 200 nM | 158 nM | 10000 nM | 1260 nM | 631 nM | 31600 nM | 15800 nM | – | – | –
Cc1nnc([C@@H](c2ccccc2)N2CCN(C(=O)c3cccc(-c4nc5cccc(C)c5o4)c3)CC2)o1 [Example 77] | 251 nM | 200 nM | 10000 nM | 1260 nM | 631 nM | > 50100 nM | 3980 nM | – | – | –
COC(=O)C(c1ccccc1)N1CCN(C(=O)c2cccc(-c3nc4ccc(OC)cc4s3)n2)CC1 (stereo not drawn) [Example 78] | 631 nM | 316 nM | 25100 nM | 1260 nM | 631 nM | 50100 nM | > 50100 nM | – | – | –
COc1ccc2nc(-c3cccc(C(=O)N4CCN(C(c5ccccc5)c5nnco5)CC4)c3)sc2c1 (stereo not drawn) [Example 79] | 200 nM | 79.4 nM | 1260 nM | 1580 nM | 631 nM | 12600 nM | > 50100 nM | – | – | –
COC(=O)C(c1ccccc1)N1CCN(C(=O)c2ccc(-c3nc4ccc(OC)cc4s3)o2)CC1 (stereo not drawn) [Example 80] | 316 nM | 251 nM | 1000 nM | 1580 nM | 631 nM | > 50100 nM | > 50100 nM | – | – | –
COC(=O)C(c1ccccc1)N1CCN(C(=O)c2cccc(NC(=O)c3ccc(OC)cc3)c2)CC1 (stereo not drawn) [Example 81] | 200 nM | 126 nM | 1260 nM | 2000 nM | 631 nM | 10000 nM | > 50100 nM | – | – | –
COc1ccc2nc(-c3cccc(C(=O)N4CCN(C(CO)c5ccccc5)CC4)c3)sc2c1 (stereo not drawn) [Example 82] | 200 nM | 126 nM | 1000 nM | 2000 nM | 631 nM | 12600 nM | 5010 nM | – | – | –
COc1ccc2nc(-c3cccc(C(=O)N4CCN(C(C(N)=O)c5ccccc5)CC4)c3)sc2c1 (stereo not drawn) [Example 84] | 316 nM | 200 nM | 1580 nM | 2510 nM | 631 nM | 31600 nM | > 50100 nM | – | – | –
Cc1nnc(C(c2ccccc2)N2CCN(C(=O)c3cccc(-c4nc5cc(C(F)(F)F)ccc5o4)c3)CC2)o1 (stereo not drawn) [Example 86] | 79.4 nM | 126 nM | 3160 nM | 631 nM | 794 nM | 31600 nM | 31600 nM | – | – | –
O=C(c1cccc(-c2nc3cc(C(F)(F)F)ccc3o2)c1)N1CCN(C(c2ccccc2)c2nnc(C3(O)CNC3)o2)CC1 (stereo not drawn) [Example 87] | 63.1 nM | 39.8 nM | 2510 nM | 398 nM | 501 nM | 39800 nM | > 50100 nM | – | – | –
COC(=O)C(c1ccccc1)N1C[C@H]2CC[C@@H](C1)N2C(=O)c1cccc(-c2nc3ccc(OC)cc3s2)c1 (stereo partly drawn) [Example 88] | 200 nM | 126 nM | 501 nM | 1000 nM | 794 nM | 12600 nM | > 50100 nM | – | – | –
COC(=O)C(c1ccccc1)N1CCN(C(=O)c2cccc(-c3ncc(C(=O)N4CCOCC4)s3)c2)CC1 (stereo not drawn) [Example 89] | 79.4 nM | 79.4 nM | 1260 nM | 1260 nM | 794 nM | 15800 nM | > 50100 nM | – | – | –
COc1ccc2nc(-c3cccc(C(=O)N4CCN(C(C(C)=O)c5ccccc5)CC4)c3)sc2c1 (stereo not drawn) [Example 90] | 316 nM | 158 nM | 1000 nM | – | – | – | 31600 nM | 5.8 | 6.1 | <4.3
COc1ccc2nc(-c3cccc(C(=O)N4CCN(C(c5ccccc5)c5ccc[nH]c5=O)CC4)c3)sc2c1 (stereo not drawn) [Example 91] | 501 nM | 316 nM | 2510 nM | 1580 nM | 794 nM | > 50100 nM | 39800 nM | – | – | –
O=C(c1cccc(-c2nc3cc(C(F)(F)F)ccc3o2)c1)N1CCN(C(c2ccccc2)c2nnc(C3CNC3)o2)CC1 (stereo not drawn) [Example 92] | 126 nM | 79.4 nM | 3160 nM | 3160 nM | 794 nM | 10000 nM | 10000 nM | – | – | –
COc1ccc2nc(-c3cccc(C(=O)N4CCN(C(C(=O)NCCN)c5ccccc5)CC4)c3)sc2c1 (stereo not drawn) [Example 93] | 79.4 nM | 63.1 nM | 631 nM | 3980 nM | 794 nM | 7940 nM | 15800 nM | – | – | –
COC(=O)C(C)(c1ccccc1)N1CCN(C(=O)c2cccc(-c3nc4ccc(OC)cc4s3)c2)CC1 (stereo not drawn) [Example 94] | 79.4 nM | 50.1 nM | 631 nM | 316 nM | 1000 nM | 7940 nM | 2510 nM | – | – | –
Cc1nnc([C@@H](c2ccccc2)N2CCN(C(=O)c3cccc(-c4cc5ccccc5cn4)c3)CC2)o1 [Example 95] | 126 nM | 158 nM | 5010 nM | 794 nM | 1000 nM | 31600 nM | 39800 nM | – | – | –
COCCNC(=O)C(c1ccccc1)N1CCN(C(=O)c2cccc(-c3nc4ccc(OC)cc4s3)c2)CC1 (stereo not drawn) [Example 97] | 100 nM | 79.4 nM | 631 nM | 1000 nM | 1000 nM | 3980 nM | 10000 nM | – | – | –
COc1ccc2nc(-c3cccc(C(=O)N4CCN(C(c5ccccc5)c5noc(C)n5)CC4)c3)sc2c1 (stereo not drawn) [Example 98] | 251 nM | 126 nM | 2510 nM | 1260 nM | 1000 nM | 12600 nM | 12600 nM | – | – | –
COCC(c1ccccc1)N1CCN(C(=O)c2cccc(-c3nc4ccc(OC)cc4s3)c2)CC1 (stereo not drawn) [Example 99] | 251 nM | 158 nM | 1260 nM | 1580 nM | 1000 nM | > 50100 nM | > 50100 nM | – | – | –
COC(=O)[C@H](c1ccccc1)N1CCN(C(=O)c2cccc(-c3nc4cc(OC)ccc4o3)c2)CC1 [Example 100] | 501 nM | 316 nM | 25100 nM | 2000 nM | 1000 nM | 25100 nM | > 50100 nM | – | – | –
Cc1nnc(C(c2ccccc2)N2CCN(C(=O)c3cccc(-c4nc5ccncc5o4)c3)CC2)o1 (stereo not drawn) [Example 102] | 200 nM | 251 nM | 12600 nM | 2000 nM | 1000 nM | > 50100 nM | > 50100 nM | – | – | –
CNC(=O)C(c1ccccc1)N1CCN(C(=O)c2cccc(-c3nc4ccc(OC)cc4s3)c2)CC1 (stereo not drawn) [Example 103] | 200 nM | 126 nM | 1000 nM | 2510 nM | 1000 nM | 15800 nM | 31600 nM | – | – | –
CCCNC(=O)C(c1ccccc1)N1CCN(C(=O)c2cccc(-c3nc4ccc(OC)cc4s3)c2)CC1 (stereo not drawn) [Example 104] | 251 nM | 200 nM | 2000 nM | 2510 nM | 1000 nM | 10000 nM | 7940 nM | – | – | –
O=C(c1cccc(-c2nc3cc(C(F)(F)F)ccc3o2)c1)N1CCN(C(c2ccccc2)c2nnco2)CC1 (stereo not drawn) [Example 107] | 398 nM | 251 nM | 20000 nM | 3160 nM | 1000 nM | > 50100 nM | > 50100 nM | – | – | –
COc1ccc2nc(-c3cccc(C(=O)N4CCN(C(Cc5nnco5)c5ccccc5)CC4)c3)sc2c1 (stereo not drawn) [Example 108] | 1580 nM | 501 nM | 25100 nM | 5010 nM | 1000 nM | > 50100 nM | > 50100 nM | – | – | –
CCc1nnc(C(c2ccccc2)N2CCN(C(=O)c3cccc(-c4nc5cc(C(F)(F)F)ccc5o4)c3)CC2)o1 (stereo not drawn) [Example 109] | 79.4 nM | 158 nM | 3980 nM | 501 nM | 1260 nM | 25100 nM | 10000 nM | – | – | –
